Results as given in patent US20250249056A1, “CANCER THERAPIES COMPRISING A NUCLEAR EXPORT INHIBITOR AND AN ONCOLYTIC VIRUS” (priority 2022, published 2025).
“Also recorded” adds a separate entry of the source.

Legend:
MYXV [1] = experiment: Viral replication assay: progeny virus titration on permissive rabbit RK13 cells; type: cell-based, myxoma virus; settings: PANC-1, Colo205, and MDA-MB435; selinexor; 24, 48, 72 h
Procedure: Viral titers in different human cancer cell lines were determined using a viral replication assay. Cells were seeded in 24-well plates (2×10^5 cells/well). The next day, the cells were treated with different concentrations of leptomycin B (LMB) or selinexor diluted in DMEM for 1 hour. MYXV was added to the cells and incubated for one hour at 37° C. After 1 hour, the unbound viruses were washed away using DMEM, and DMEM with LMB or selinexor was added to the cells. Cells were harvested in DMEM without LMB or selinexor at the indicated time points. After harvesting the cells, they were stored at −80° C. until processing. Samples were subjected to three freeze/thaw cycles and one-minute sonification to lyse cells and release the viral particles. Afterwards, different dilutions were prepared in DMEM and plated on rabbit RK13 and foci were counted after 48 hours using a fluorescent microscope. All assays and dilutions were performed in triplicate.

Colo205 cells = experiment: CyQUANT NF cell proliferation assay (Colo205); type: cell-based, human; settings: after 24 hours compared to mock treated cells, selinexor 0.1 or 1 μM, multiple MOI
Procedure: Cell Proliferation Assay: To measure cancer cell proliferation based on the amount of cellular DNA, the CyQuant™ NF Cell Proliferation Assay Kit (Invitrogen) was used according to the manufacturer's instructions. Briefly, PANC-1, HT29, MDA-MB435, and Colo205 cells were seeded in a 96-well plate (1×10^4 cells/well) and left to attach to the wells overnight. The next day, the medium was removed and replaced with 50 μL medium containing different concentrations of selinexor (0-1 μM). After an hour of incubation with selinexor, the virus was added to different MOIs (0.5-5), bringing the end volume of every well up to 100 μL. A 1× dye binding solution was prepared by adding 9 μL of the CyQuant™ NF Dye reagent in 4.5 mL Hank's Balanced Salt Solution (HBSS) buffer (Invitrogen). After 24, 48, 72, and 96 hours of incubation, the medium was removed from the cells and 50 μL 1× dye solution was added to all wells. The microplate was covered to protect it from light and was incubated for 30-60 minutes in a 5% CO2 incubator at 37° C. Subsequently, cell proliferation was quantified by measuring fluorescence with an excitation of 485 nm and emission of 530 nm in a VarioSkan Lux Microplate reader (Thermo Fisher). All experiments were performed in quadruple and normalized to mock-treated cells.

[2] = system: PANC-1, Colo205, HT29, and MDMB435 cells; experiment: Cell viability assay (MTS); type: cell-based, human
Procedure: To further assess the inhibition of cell proliferation, and investigate if cell death is enhanced, cell viability assays were performed using an MTS assay to detect metabolic activity in active cells. For this assay, PANC-1 (FIG. 5A through FIG. 5D), Colo205 (FIG. 5E through FIG. 5H), HT29, and MDMB435 cells were treated with different concentrations of selinexor, infected with MYXB at different MOIs, or treated with a combination of selinexor and MYXB, and cell viability was measured at different time points.
Cell Viability Assay: To assess the viability of different human cancer cells after selinexor treatment or MYXV infection, 10,000 cells were seeded into each well of a 96-well plate. The next day, cells were treated with different concentrations of selinexor, infected with different MOIs of MYXV, or treated with different concentrations of selinexor for 1 hour followed by infection with different MOIs of MYXV. A minimum of four wells were used for each treatment condition, and untreated cells (mock) served as controls. Cell viability was assessed at 24, 48, 72, and 96 hours using an MTS assay.

[3] = system: Lewis lung carcinoma (LLC1) cells; experiment: Lewis lung carcinoma (LLC1) tumor model in immunocompetent C57BL/6 mice; type: in vivo; settings: single agents; selinexor 15 mg/kg oral; MYXV expressing IL15/IL15Ra (vMyx-IL15Ra) IT 5×10^7 FFU; left and right tumors
Procedure: To verify that the combination of selinexor and MYXV is effective even in mice with a competent immune system, C57BL/6 mice were inoculated with mouse Lewis lung carcinoma (LLC1) cells (FIG. 14A). LLC1 cells were subcutaneously injected on both sides of the flank in C57BL/6 mice. Mice were separated into treatment groups and treated with PBS, selinexor, MYXV expressing IL15/IL15Ra (IT, 5×10^7), or selinexor+MYXV expressing IL15/IL15Ra.
The tumor burden on each flank was measured twice every week.

MYXV [4] = experiment: MYXV reporter gene expression (GFP/TdTomato) and foci by fluorescence microscopy in human cancer cell lines

## O=C(/C=C\n1cnc(-c2cc(C(F)(F)F)cc(C(F)(F)F)c2)n1)NNc1cnccn1 [selinexor]
MYXV [1]
  increase in virus production compared to infection with MYXV alone: 10-100 fold
Colo205 cells
  cell proliferation (DNA content): significant reductions in cell proliferation
[2]; selinexor 0.5 μM or 1 μM, over time, all cells tested
  cell viability: 50%
[2]; selinexor alone 0.1 μM or 0.05 μM
  cell viability: no effect on cell viability; also recorded: almost no effect
[3]
  tumor burden: significantly reduced tumor burden
MYXV [4]; PANC-1, Colo205, MDA-MB435, HCT116, selinexor 0.1-10 μM pre-treatment 1 h, vMyx-GFP-TdTomato MOI 5, 48 h post-infection
  GFP and TdTomato reporter protein expression: Enhanced GFP and TdTomato reporter protein expression
MYXV [4]; infected at low MOI, selinexor treatment
  foci formation in restricted human cancer cell lines: formation of small foci
MYXV [4]; selinexor 10 μM or higher, all cancer cell lines tested
  cell death caused by selinexor alone: enhanced cell death
